In ChEMBL document CHEMBL3621077, “Synthesis of hybrid anticancer agents based on kinase and histone deacetylase inhibitors” (Medchemcomm, 2014):
Active and inactive are the calls of the source. The rule behind the calls is not given here.

What was measured:
SF-539 = assay: Cytotoxicity against human SF539 cells; assay type: functional
Xenopus laevis [1] = organism: Xenopus laevis; details: at 10 to 100 µM
UACC-62 = assay: Cytotoxicity against human UACC62 cells; assay type: functional
HL-60(TB) = assay: Cytotoxicity against human HL-60(TB) cells; assay type: functional
HCC 2998 = assay: Cytotoxicity against human HCC2998 cells; assay type: functional
RPMI-8226 = assay: Cytotoxicity against human RPMI8226 cells; assay type: functional
SN12C = assay: Cytotoxicity against human SN12C cells; assay type: functional
T47D = assay: Cytotoxicity against human T47D cells; assay type: functional
RXF 393 = assay: Cytotoxicity against human RXF393 cells; assay type: functional
SK-OV-3 = assay: Cytotoxicity against human SKOV3 cells; assay type: functional
NCI-H522 = assay: Cytotoxicity against human NCI-H522 cells; assay type: functional
Xenopus laevis [2] = organism: Xenopus laevis; assay: Inhibition of angiogenesis in Xenopus laevis embryo heart assessed as effect on Egfl7 expression in intersomitic vessels at 100 uM at stage 9 incubated for 72 hrs until stage 38 measured by WISH method; assay type: functional, organism-based; details: Intersomitic vessel
HOP-92 = assay: Cytotoxicity against human HOP92 cells; assay type: functional
NCI-H460 = assay: Cytotoxicity against human NCI-H460 cells; assay type: functional
Xenopus laevis [3] = organism: Xenopus laevis; assay: Inhibition of angiogenesis in Xenopus laevis embryo heart assessed as decrease in Egfl7 mRNA level at 10 to 100 uM at stage 9 incubated for 72 hrs until stage 38 measured by WISH method; assay type: functional, organism-based
OVCAR-5 = assay: Cytotoxicity against human OVCAR5 cells; assay type: functional
[4] = molecular target: Mast/stem cell growth factor receptor Kit (Homo sapiens) (UniProt P10721); assay: Inhibition of c-kit (unknown origin) at 10 uM
KM12 = assay: Cytotoxicity against human KM12 cells; assay type: functional
Histone deacetylase 9 = Histone deacetylase 9 (Homo sapiens, UniProt Q9UKV0); assay: Inhibition of HDAC9 (unknown origin)
A498 = assay: Cytotoxicity against human A498 cells; assay type: functional
OVCAR-3 = assay: Cytotoxicity against human OVCAR3 cells; assay type: functional
Xenopus laevis [5] = organism: Xenopus laevis; assay: Inhibition of angiogenesis in Xenopus laevis embryo heart assessed as reduction in tube formation at 100 uM at stage 9 incubated for 72 hrs until stage 38 measured by WISH method; assay type: functional, organism-based
[6] = molecular target: Platelet-derived growth factor receptor alpha (Homo sapiens, UniProt P16234); assay: Inhibition of PDGFRa (unknown origin); details: read-out: IC50
NCI-H322M = assay: Cytotoxicity against human NCI-H322M cells; assay type: functional
MDA-MB-468 = assay: Cytotoxicity against human MDA-MB-468 cells; assay type: functional
Histone deacetylase 7 = molecular target: T1, Histone deacetylase 7 (Homo sapiens, UniProt Q8WUI4); assay: Inhibition of HDAC7 (unknown origin)
T1 sequence (Q8WUI4 whole entry): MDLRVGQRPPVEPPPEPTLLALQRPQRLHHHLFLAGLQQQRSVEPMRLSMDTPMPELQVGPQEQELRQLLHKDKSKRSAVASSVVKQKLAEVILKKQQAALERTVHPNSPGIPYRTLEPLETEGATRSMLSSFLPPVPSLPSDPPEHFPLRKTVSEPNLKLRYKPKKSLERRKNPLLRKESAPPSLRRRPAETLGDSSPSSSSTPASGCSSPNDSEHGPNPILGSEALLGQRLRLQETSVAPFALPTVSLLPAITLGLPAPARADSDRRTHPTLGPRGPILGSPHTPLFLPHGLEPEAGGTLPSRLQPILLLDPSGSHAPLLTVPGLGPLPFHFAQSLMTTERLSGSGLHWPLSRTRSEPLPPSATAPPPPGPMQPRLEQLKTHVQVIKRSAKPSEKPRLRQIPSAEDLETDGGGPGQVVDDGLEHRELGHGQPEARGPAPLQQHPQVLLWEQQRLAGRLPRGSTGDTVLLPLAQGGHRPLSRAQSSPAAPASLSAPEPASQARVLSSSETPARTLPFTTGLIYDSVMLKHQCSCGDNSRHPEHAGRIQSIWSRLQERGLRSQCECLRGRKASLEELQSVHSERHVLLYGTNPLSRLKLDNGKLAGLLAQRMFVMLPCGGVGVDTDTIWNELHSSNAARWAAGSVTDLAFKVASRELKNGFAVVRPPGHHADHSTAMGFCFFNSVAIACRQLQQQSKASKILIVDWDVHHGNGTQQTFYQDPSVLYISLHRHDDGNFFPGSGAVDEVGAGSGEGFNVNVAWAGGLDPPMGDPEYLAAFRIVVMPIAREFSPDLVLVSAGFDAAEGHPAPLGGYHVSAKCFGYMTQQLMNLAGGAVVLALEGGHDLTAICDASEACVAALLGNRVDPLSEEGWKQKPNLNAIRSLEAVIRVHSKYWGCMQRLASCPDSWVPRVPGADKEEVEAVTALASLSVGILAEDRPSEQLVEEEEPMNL

CAKI-1 = assay: Cytotoxicity against human Caki1 cells; assay type: functional
SK-MEL-5 = assay: Cytotoxicity against human SK-MEL-5 cells; assay type: functional
SNB-19 = assay: Cytotoxicity against human SNB19 cells; assay type: functional
DU-145 = assay: Cytotoxicity against human DU145 cells; assay type: functional
IGROV-1 = assay: Cytotoxicity against human IGROV1 cells; assay type: functional
UACC-257 = assay: Cytotoxicity against human UACC257 cells; assay type: functional
MOLT-4 = assay: Cytotoxicity against human MOLT4 cells; assay type: functional
Histone deacetylase 4 = Histone deacetylase 4 (Homo sapiens, UniProt P56524); assay: Inhibition of HDAC4 (unknown origin)
HT-29 = assay: Cytotoxicity against human HT-29 cells; assay type: functional
BT-549 = assay: Cytotoxicity against human BT549 cells; assay type: functional
SW-620 = assay: Cytotoxicity against human SW620 cells; assay type: functional
[7] = Cytotoxicity against human NCI-ADR-RES cells; assay type: functional
[8] = molecular target: Vascular endothelial growth factor receptor 2 (Homo sapiens, UniProt P35968); assay: Inhibition of VEGFR2 (unknown origin); details: read-out: IC50
Histone deacetylase 2 = Histone deacetylase 2 (Homo sapiens, UniProt Q92769)
Histone deacetylase 3 = Histone deacetylase 3 (Homo sapiens, UniProt O15379); assay: Inhibition of HDAC3 (unknown origin)
TK-10 = assay: Cytotoxicity against human TK10 cells; assay type: functional
CCRF-CEM = assay: Cytotoxicity against human CCRF-CEM cells; assay type: functional
LOX IMVI = assay: Cytotoxicity against human LOXIMVI cells; assay type: functional
[9] = molecular target: Platelet-derived growth factor receptor beta (Homo sapiens, UniProt P09619); assay: Inhibition of PDGFRb (unknown origin); details: read-out: IC50
U-251 = assay: Cytotoxicity against human U251 cells; assay type: functional
MCF7 = assay: Cytotoxicity against human MCF7 cells; assay type: functional
HOP-62 = assay: Cytotoxicity against human HOP62 cells; assay type: functional
ACHN = assay: Cytotoxicity against human ACHN cells; assay type: functional
[10] = Cytotoxicity against human Hs 578T cells; assay type: functional

Sequence of Histone deacetylase 4 (P56524 whole entry): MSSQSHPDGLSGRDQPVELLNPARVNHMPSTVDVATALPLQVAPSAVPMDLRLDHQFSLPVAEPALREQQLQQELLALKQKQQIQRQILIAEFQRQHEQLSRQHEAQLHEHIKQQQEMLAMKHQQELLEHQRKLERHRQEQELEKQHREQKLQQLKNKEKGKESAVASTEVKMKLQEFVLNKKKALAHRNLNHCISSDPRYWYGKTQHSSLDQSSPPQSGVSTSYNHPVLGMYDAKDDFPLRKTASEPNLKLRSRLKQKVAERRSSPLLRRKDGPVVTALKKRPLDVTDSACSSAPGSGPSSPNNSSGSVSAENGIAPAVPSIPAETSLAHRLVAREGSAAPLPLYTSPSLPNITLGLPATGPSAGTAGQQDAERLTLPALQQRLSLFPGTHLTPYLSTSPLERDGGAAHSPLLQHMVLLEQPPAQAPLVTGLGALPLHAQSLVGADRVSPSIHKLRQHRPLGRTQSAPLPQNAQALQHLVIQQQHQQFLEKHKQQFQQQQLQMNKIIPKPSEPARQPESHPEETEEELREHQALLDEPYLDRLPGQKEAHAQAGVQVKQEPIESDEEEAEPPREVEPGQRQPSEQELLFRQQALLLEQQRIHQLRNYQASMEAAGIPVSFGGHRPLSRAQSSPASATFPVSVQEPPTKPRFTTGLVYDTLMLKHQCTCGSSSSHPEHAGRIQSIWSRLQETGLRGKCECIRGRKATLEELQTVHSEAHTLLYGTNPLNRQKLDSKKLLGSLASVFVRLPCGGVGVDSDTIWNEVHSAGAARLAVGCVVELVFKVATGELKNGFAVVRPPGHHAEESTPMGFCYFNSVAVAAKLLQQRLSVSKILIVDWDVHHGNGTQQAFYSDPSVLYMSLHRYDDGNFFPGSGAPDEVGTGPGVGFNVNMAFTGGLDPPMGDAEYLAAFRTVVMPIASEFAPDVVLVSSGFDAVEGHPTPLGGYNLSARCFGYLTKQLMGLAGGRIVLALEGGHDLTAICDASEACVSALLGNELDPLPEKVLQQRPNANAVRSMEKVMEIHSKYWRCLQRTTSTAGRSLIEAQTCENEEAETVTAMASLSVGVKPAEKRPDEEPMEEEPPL
Sequence of Platelet-derived growth factor receptor beta (P09619 whole entry): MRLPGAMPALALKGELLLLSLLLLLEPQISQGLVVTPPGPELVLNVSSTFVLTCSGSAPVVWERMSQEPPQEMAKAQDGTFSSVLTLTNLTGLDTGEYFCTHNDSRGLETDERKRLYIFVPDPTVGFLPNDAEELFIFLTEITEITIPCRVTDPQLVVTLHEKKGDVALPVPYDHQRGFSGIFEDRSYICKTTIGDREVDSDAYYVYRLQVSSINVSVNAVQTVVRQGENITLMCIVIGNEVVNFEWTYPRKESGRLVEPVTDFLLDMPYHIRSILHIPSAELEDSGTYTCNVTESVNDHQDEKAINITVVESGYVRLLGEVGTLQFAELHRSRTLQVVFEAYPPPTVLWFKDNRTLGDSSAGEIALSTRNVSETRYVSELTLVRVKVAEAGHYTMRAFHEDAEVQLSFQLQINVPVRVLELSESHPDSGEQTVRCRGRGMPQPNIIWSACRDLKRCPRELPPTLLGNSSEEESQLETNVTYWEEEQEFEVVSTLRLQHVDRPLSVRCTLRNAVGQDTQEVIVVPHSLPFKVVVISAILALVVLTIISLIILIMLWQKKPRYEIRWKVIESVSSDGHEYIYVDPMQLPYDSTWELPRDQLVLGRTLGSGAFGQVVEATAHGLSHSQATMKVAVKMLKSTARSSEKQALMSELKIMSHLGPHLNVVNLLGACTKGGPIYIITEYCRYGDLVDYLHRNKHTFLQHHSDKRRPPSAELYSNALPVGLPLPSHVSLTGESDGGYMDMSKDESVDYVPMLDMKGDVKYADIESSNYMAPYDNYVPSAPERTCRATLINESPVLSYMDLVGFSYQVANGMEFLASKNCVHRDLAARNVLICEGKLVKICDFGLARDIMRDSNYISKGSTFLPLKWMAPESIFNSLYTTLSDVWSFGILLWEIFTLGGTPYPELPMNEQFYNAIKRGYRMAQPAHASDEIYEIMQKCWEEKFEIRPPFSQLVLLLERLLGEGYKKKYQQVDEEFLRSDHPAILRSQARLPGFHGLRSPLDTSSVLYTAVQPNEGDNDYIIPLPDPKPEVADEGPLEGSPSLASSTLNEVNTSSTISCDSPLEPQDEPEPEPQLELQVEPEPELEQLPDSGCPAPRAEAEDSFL
Sequence of Mast/stem cell growth factor receptor Kit (Homo sapiens) (P10721 whole entry): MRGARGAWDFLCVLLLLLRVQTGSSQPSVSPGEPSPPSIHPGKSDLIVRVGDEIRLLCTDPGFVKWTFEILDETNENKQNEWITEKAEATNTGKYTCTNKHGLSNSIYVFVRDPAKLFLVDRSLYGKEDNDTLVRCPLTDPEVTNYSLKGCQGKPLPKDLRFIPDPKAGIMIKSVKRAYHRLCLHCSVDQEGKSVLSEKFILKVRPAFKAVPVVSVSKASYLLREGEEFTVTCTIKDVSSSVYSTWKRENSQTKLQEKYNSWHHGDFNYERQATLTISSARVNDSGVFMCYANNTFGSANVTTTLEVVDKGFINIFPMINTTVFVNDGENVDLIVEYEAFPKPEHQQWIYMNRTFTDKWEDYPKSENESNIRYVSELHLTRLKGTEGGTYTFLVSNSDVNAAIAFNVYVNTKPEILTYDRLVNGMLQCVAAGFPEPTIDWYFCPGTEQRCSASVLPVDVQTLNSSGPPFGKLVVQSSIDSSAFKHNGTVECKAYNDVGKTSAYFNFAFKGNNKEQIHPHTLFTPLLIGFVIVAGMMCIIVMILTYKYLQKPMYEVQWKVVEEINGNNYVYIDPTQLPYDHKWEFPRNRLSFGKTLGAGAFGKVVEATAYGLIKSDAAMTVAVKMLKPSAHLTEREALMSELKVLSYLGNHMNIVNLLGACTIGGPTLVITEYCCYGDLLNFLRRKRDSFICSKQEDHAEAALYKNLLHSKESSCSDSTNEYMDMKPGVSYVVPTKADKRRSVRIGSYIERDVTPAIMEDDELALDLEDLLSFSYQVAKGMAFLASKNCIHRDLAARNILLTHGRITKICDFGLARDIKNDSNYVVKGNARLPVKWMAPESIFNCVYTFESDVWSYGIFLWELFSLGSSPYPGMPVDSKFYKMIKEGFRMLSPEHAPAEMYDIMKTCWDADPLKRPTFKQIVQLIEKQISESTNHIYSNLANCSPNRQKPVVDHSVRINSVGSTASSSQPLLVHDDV
Sequence of Histone deacetylase 9 (Q9UKV0 whole entry): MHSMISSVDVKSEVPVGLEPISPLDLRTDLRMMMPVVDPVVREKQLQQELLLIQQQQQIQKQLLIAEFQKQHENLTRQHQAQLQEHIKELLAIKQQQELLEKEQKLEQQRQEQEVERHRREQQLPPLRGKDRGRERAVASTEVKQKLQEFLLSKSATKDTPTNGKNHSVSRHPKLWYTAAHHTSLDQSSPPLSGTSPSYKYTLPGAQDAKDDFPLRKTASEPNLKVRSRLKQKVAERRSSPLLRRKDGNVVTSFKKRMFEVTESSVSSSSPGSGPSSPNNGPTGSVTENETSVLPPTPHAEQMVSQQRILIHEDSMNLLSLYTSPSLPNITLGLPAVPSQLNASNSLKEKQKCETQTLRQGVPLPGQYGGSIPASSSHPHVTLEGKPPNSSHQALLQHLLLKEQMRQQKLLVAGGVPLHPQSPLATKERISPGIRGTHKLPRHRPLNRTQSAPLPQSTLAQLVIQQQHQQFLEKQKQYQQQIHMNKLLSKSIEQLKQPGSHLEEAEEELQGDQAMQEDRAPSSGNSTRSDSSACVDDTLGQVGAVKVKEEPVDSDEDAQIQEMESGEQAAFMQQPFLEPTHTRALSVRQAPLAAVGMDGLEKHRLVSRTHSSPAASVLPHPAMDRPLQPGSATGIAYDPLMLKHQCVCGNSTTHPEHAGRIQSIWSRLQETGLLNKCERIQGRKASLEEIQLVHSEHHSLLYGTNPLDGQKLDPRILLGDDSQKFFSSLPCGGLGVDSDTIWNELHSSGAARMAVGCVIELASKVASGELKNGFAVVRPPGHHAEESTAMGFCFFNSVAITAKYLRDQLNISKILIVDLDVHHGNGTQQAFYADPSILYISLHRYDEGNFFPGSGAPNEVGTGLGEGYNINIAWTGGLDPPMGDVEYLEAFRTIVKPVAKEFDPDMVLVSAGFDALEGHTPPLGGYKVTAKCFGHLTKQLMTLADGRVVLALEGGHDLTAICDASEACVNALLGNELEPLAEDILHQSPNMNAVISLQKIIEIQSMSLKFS
Sequence of Histone deacetylase 2 (Q92769 whole entry): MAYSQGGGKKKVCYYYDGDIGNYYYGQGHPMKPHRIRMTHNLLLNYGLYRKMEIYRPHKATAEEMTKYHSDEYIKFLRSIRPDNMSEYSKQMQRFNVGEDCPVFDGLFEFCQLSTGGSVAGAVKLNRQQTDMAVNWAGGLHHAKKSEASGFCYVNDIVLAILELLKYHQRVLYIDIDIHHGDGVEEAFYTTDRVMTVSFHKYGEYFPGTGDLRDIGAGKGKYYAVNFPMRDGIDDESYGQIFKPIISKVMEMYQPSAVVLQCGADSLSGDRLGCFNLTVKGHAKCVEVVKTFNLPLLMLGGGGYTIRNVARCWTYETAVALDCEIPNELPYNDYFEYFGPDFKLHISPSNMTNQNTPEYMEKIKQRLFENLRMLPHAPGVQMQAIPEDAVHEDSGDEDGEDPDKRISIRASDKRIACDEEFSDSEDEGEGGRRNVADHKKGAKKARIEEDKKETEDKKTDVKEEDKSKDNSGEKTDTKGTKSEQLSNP
Sequence of Histone deacetylase 3 (O15379 whole entry): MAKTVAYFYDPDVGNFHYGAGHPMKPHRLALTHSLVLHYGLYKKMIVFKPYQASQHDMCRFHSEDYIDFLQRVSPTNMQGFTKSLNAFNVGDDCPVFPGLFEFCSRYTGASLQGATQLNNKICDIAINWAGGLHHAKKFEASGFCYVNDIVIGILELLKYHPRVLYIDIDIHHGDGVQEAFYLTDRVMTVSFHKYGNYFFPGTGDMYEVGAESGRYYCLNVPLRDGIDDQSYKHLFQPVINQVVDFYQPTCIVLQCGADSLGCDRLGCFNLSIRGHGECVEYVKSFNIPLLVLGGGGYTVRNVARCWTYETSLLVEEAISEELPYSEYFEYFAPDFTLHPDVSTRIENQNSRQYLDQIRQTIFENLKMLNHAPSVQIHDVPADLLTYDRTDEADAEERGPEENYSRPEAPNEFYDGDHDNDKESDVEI

In the case of `O=C(CCCCCCC(=O)Nc1ccc2c(c1)/C(=C/c1ccc[nH]1)C(=O)N2)NO`, the GI50 (SF-539) is reported as 605 nM, the inhibition (Xenopus laevis [1]) is reported as “Active” and the GI50 (UACC-62) is reported as 301 nM. The GI50 (HL-60(TB)) was 477 nM, the GI50 (HCC 2998) was 1640 nM and the GI50 (RPMI-8226) was 2920 nM. It also gave a GI50 (SN12C) of 2190 nM, a GI50 (T47D) of 45 nM and a GI50 (RXF 393) of 518 nM. The GI50 (SK-OV-3) was 363 nM, the GI50 (NCI-H522) was 87 nM and the inhibition (Xenopus laevis [2]) was “inactive”. The GI50 (HOP-92) was 412 nM, the GI50 (NCI-H460) was 2740 nM and the inhibition (Xenopus laevis [3]) was “Active”. The GI50 (OVCAR-5) was 1120 nM, the inhibition [4] was “inactive” and the GI50 (KM12) was 960 nM. For the same molecule, the IC50 (Histone deacetylase 9) was “Not Active”, the GI50 (A498) was 365 nM and the GI50 (OVCAR-3) was 3600 nM. The Activity (Xenopus laevis [5]) was “inactive”, the IC50 [6] was 1190 nM and the GI50 (NCI-H322M) was 1020 nM. The GI50 (MDA-MB-468) was 194 nM, the IC50 (Histone deacetylase 7) was “Not Active” and the GI50 (CAKI-1) was 2330 nM. It also gave a GI50 (SK-MEL-5) of 243 nM, a GI50 (SNB-19) of 644 nM and a GI50 (DU-145) of 1020 nM. For the same molecule, the GI50 (IGROV-1) was 167 nM, the GI50 (UACC-257) was 370 nM and the GI50 (MOLT-4) was 302 nM. The IC50 (Histone deacetylase 4) was “Not Active”, the GI50 (HT-29) was 612 nM and the GI50 (BT-549) was 1940 nM. For the same molecule, the GI50 (SW-620) was 275 nM, the GI50 [7] was 4000 nM and the IC50 [8] was 237 nM. It also gave an IC50 (Histone deacetylase 2) of 1.11 nM, an IC50 (Histone deacetylase 3) of 0.669 nM and a GI50 (TK-10) of 795 nM. For the same molecule, the GI50 (CCRF-CEM) was 102 nM, the GI50 (LOX IMVI) was 565 nM and the IC50 [9] was 185 nM. It also gave a GI50 (U-251) of 420 nM, a GI50 (MCF7) of 440 nM and a GI50 (HOP-62) of 381 nM. It also gave a GI50 (ACHN) of 1150 nM and a GI50 [10] of 1020 nM.
